Experiments:
[1] = tested on: WD patients; settings: once daily dosing in WD patients; cited from earlier work
[2] = Crystallinity by X-ray powder diffraction (XRPD); assay type: physicochemical
Method: Crystallinity was analyzed by X-ray powder diffraction (XRPD) using a Cu-anode (45 kV/40 mA), a Kα-1 monochromator and silicon-based position-sensitive 1D detector (Malvern Panalytical, X'Celerator™). The 2-theta range was 2-35° using a scan speed of 0.02°/s and a step size of 0.017°. Slow spinning sample holders were used. […] Each sample was smeared out using a Teflon bar, producing a flat powdered surface on zero background wafers of silicon (Si). The measurements were performed using a programmable incident divergence slit.
The crystallinity was evaluated using Panalytical HighScore Plus™ software (The HighScore suite; T. Degen, M. Sadki, E. Bron, U. König, G. Nénert; Powder Diffraction, Volume 29, Supplement S2, December 2014, pp S13-S18). This method is based on the following steps: 1) Calculation of the net area of the signals from the crystalline part of the sample. This area is defined as “AREAcryst.” 2) Calculation of the net total area, that is, area from the amorphous “humps” plus the net peak area from step 1. This area is defined as “AREAtotal.” In the calculation of above areas, an automatic correction of the background is made by using data collected for an empty sample holder. 3) The percent crystallinity of the sample is calculated as: (AREAcryst/AREAtotal)*100.
XRPD crystallinity results for each batch are reported Table 1.

[3] = Particle size distribution (PSD) by LALLS; assay type: physicochemical; settings: for Dx (10)/μm: 10th percentile of particle size, paraffin oil dispersion; for Dx (50)/μm: 50th percentile of particle size; for Dx (90)/μm: 90th percentile of particle size; for >100 μm (%): percentage of particles greater than 100 μm; for <2 μm (%): percentage of particles less than 2 μm
Description: As used herein, the term “Dx(10)/μm” refers to the 10th percentile of particle size (D10) measured in micrometers (μm). As used herein, the terms “Dx(50)/μm” or “median particle size” refer to the 50th percentile particle size (D50). As used herein, the term “Dx(90)/μm” refers to the 90th percentile of particle size (D90).
As used herein, the term “<2 μm (%)” refers to the percentage (%) of particles that are less than 2 μm. As used herein, the term “>100 μm (%)” refers to the percentage (%) of particles that are greater than 100 μm. As used herein, the percentage of particles refers to the percentage based on the population, or number, of particles.
The sample dispersion medium was paraffin oil. […] This was repeated until a stable reading was obtained.
The PSD measurements were done using the following settings: background measurement time, 20 seconds(s); sample measurement time, 20 s; dispersant refractive index, 1.45; particle refractive index, N/A (Fraunhofer), absorption, N/A (Fraunhofer); stirrer speed, 2500 rpm; analysis model: general purpose.

[4] = Specific surface area (SSA) by BET; assay type: physicochemical; settings: N2 adsorption
Method: As used herein, the ten “SSA (m^2/g)” refers to specific surface area (SSA) measured in square meters (m^2) per gram (g). SSA was measured by BET according to the method described in Example 4.
Specific Surface Area (SSA) was analyzed by BET on a surface area analyzer (Gemini 2375™ from Micromeritics Instrument Corp.). […] Each sample was filled into a glass tube and “degassed” at 30° C. for 1 h under continuous N2 (g) flow in order to remove all loosely bound molecules on the external surface and from potential channels in the material. Simultaneously, the saturation pressure for the liquid nitrogen used was determined. After weighing the degassed samples, the degassed samples were inserted into the measuring position at −196° C. (boiling point for liquid nitrogen), evacuated and then exposed to a range of partial pressures basically covering the whole range from almost zero to close to 1 under adsorption mode. The lower pressures were used for SSA determination. Higher pressures were used for potential micro pore determination. In order to ascribe the right amount of nitrogen to the substances, the free volume in the tubes was measured with helium gas prior to nitrogen adsorption. The appropriate thickness values for the adsorbed layer (above the point where no absorption took place in micro pores anymore) was determined from a t-plot and subsequently used to correct the calculation by separating the adsorbed nitrogen molecules into either absorbed into potential pore like structures (the “micro pore volume”) or adsorbed onto actual external surface.

[5] = Stability of crystalline particles after forced degradation at 40° C. and 75% relative humidity (HPLC impurities); assay type: physicochemical
Method: Stability analysis was performed on crystalline particles after forced degradation at 40° C. and 75% relative humidity over 3 days.

[6] = Day 3, 40° C. / 75% RH, listed as B-2
[7] = Day 3, 40° C. / 75% RH, listed as B-3
[8] = Day 3, 40° C. / 75% RH, listed as B-4

Bis-choline tetrathiomolybdate [BC-TTM]
Cu control and improvement of hepatic function [1]: demonstrated to provide Cu control and improvement of hepatic function

bis-choline tetrathiomolybdate [Batch B-2]
Estimated Crystallinity (%) ([2]; AREAcryst/AREAtotal*100, listed as B-2): 93% | Dx (10)/μm ([3]; listed as B-2): 5.4 μm | Dx (50)/μm ([3]; listed as B-2): 20.5 μm | Dx (90)/μm ([3]; listed as B-2): 59.7 μm | >100 μm (%) ([3]; listed as B-2): 0.1% | <2 μm (%) ([3]; listed as B-2): 4.3% | SSA (m^2/g) ([4]; listed as B-2): 0.65 m^2/g | Mo2S6O2 dimer (area %) ([5]; Day 1, 40° C. / 75% RH, listed as B-2): 0.07 area % | Mo2S6O2 dimer (area %) ([5]; Day 2, 40° C. / 75% RH, listed as B-2): 0.13 area % | Mo2S6O2 dimer (area %) [5, 6]: 0.19 area % | TM2 (area %) [5, 6]: 0.13 area % | TM3 (area %) [5, 6]: 0.54 area % | Total impurities (area %) [5, 6]: 0.97 area % | TM2 (area %) ([5]; Initial, listed as B-2): 0.01 area % | TM3 (area %) ([5]; Initial, listed as B-2): 0.52 area % | Total impurities (area %) ([5]; Initial, listed as B-2): 0.56 area %

bis-choline tetrathiomolybdate [Batch B-3]
Estimated Crystallinity (%) ([2]; AREAcryst/AREAtotal*100, listed as B-3): 95% | Dx (10)/μm ([3]; listed as B-3): 10.5 μm | Dx (50)/μm ([3]; listed as B-3): 30.0 μm | Dx (90)/μm ([3]; listed as B-3): 54.9 μm | >100 μm (%) ([3]; listed as B-3): 0.0% | <2 μm (%) ([3]; listed as B-3): 2.6% | SSA (m^2/g) ([4]; listed as B-3): 0.38 m^2/g | Mo2S6O2 dimer (area %) ([5]; Day 1, 40° C. / 75% RH, listed as B-3): <0.05 area % | Mo2S6O2 dimer (area %) ([5]; Day 2, 40° C. / 75% RH, listed as B-3): 0.07 area % | Mo2S6O2 dimer (area %) [5, 7]: 0.11 area % | TM2 (area %) [5, 7]: 0.10 area % | TM3 (area %) [5, 7]: 0.43 area % | Total impurities (area %) [5, 7]: 0.68 area % | TM2 (area %) ([5]; Initial, listed as B-3): 0.01 area % | TM3 (area %) ([5]; Initial, listed as B-3): 0.42 area % | Total impurities (area %) ([5]; Initial, listed as B-3): 0.44 area %

bis-choline tetrathiomolybdate [Batch B-4]
Estimated Crystallinity (%) ([2]; AREAcryst/AREAtotal*100, listed as B-4): 93% | Dx (10)/μm ([3]; listed as B-4): 3.6 μm | Dx (50)/μm ([3]; listed as B-4): 12.7 μm | Dx (90)/μm ([3]; listed as B-4): 47.6 μm | >100 μm (%) ([3]; listed as B-4): 0.0% | <2 μm (%) ([3]; listed as B-4): 6.6% | SSA (m^2/g) ([4]; listed as B-4): 1.16 m^2/g | Mo2S6O2 dimer (area %) ([5]; Day 1, 40° C. / 75% RH, listed as B-4): 0.06 area % | Mo2S6O2 dimer (area %) ([5]; Day 2, 40° C. / 75% RH, listed as B-4): 0.23 area % | Mo2S6O2 dimer (area %) [5, 8]: 0.38 area % | TM2 (area %) [5, 8]: 0.19 area % | TM3 (area %) [5, 8]: 0.23 area % | Total impurities (area %) [5, 8]: 1.01 area % | Mo2S6O2 dimer (area %) ([5]; Initial): <0.05 area % | TM2 (area %) ([5]; Initial, listed as B-4): 0.01 area % | TM3 (area %) ([5]; Initial, listed as B-4): 0.14 area % | Total impurities (area %) ([5]; Initial, listed as B-4): 0.20 area %
